This passage reports Ki, Kina and IC50 results from ChEMBL document CHEMBL1128990, “Design, synthesis, and characterization of dipeptide isostere containing cis-epoxide for the irreversible inactivation of HIV protease” (Bioorg Med Chem Lett, 1996).

The target in assay [1] is Human immunodeficiency virus type 1 protease (Human immunodeficiency virus 1, UniProt Q72874). Put plainly: Inhibitory activity against HIV protease was determined.
For assay [2], the target named is Human immunodeficiency virus type 1 protease (Human immunodeficiency virus 1) (UniProt Q72874). Description: Kinetic parameter (kina) value was determined for the compound.
The target in assay [3] is Cathepsin D (Homo sapiens, UniProt P07339). Description: Inhibitory activity against human cathepsin D was determined.

Structures are written as SMILES.

Sequence of Cathepsin D (P07339 65-162 limits assumed): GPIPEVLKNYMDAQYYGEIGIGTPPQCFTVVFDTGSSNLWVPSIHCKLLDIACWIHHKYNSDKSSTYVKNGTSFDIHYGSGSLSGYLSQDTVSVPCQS
Sequence of Cathepsin D (P07339 169-412 limits assumed): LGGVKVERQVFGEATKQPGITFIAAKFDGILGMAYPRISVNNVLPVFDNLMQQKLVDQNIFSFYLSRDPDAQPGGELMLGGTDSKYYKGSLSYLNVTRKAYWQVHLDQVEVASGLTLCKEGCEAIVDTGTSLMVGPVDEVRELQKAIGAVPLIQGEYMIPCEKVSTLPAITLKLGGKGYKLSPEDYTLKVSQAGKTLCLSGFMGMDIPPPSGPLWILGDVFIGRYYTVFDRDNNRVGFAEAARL

With `CC(C)C(NC(=O)C[C@H]1O[C@@H]1[C@H](Cc1ccccc1)NC(=O)OCc1ccccc1)C(=O)O` (stereo partly specified), the Ki (usually the dissociation constant of the complex between target and ligand, obtained from inhibition or displacement) in assay [1] was 200 µM. Further, the Kina in assay [2] came to 0.2 min⁻¹.
On the same counts, the results for `CCC(C)C(NC(=O)C[C@H]1O[C@H]1[C@H](Cc1ccccc1)NC(=O)C(CC(N)=O)NC(=O)c1ccc2ccccc2n1)C(=O)O` (mixture of isomers) are 0.018 µM and 0.22 min⁻¹.
In turn, `CC(C)C(NC(=O)C[C@@H]1O[C@@H]1[C@H](Cc1ccccc1)NC(=O)C(CC(N)=O)NC(=O)c1ccc2ccccc2n1)C(C)C` (stereo partly specified) yielded a Ki in assay [1] of 0.001 µM. Moreover, it took 12.5 µM to reach half-maximal inhibition in assay [3] (IC50). In addition, the Kina in assay [2] worked out at 0.2 min⁻¹.
Compound `CC(C)C(NC(=O)[C@@H]1O[C@@H]1[C@H](Cc1ccccc1)NC(=O)OCc1ccccc1)C(=O)O` (stereo partly specified) displayed a Ki in assay [1] of more than 10000 µM. The same compound registered a Kina in assay [2] of 0.02 min⁻¹.
In the case of `CC(C)C(NC(=O)C[C@H]1O[C@H]1[C@H](Cc1ccccc1)NC(=O)OCc1ccccc1)C(=O)O` (stereo partly specified), the Ki in assay [1] stood at 1.32 µM. In addition, the Kina in assay [2] was 1.48 min⁻¹.
